Here are results for two compounds from US9944660B2, “Tricyclic benzoxaboroles as antibacterial agents” (Daiichi Sankyo Company, Limited, priority 2014, dated 2018).

Where two headings read alike, the source gives them in different places.

Series [1] is described as follows: Oral bioavailability (BA) in rats. The following applies: male, rat, plasma, 8.5 mg/kg body weight; Sprague Dawley Rats, 8.5 mg/kg oral, 4.25 mg/kg intravenous; read-out: oral absolute bioavailability. Type of series: in vivo. The method, then: (Test Example 8a) Oral Bioavailability (BA) in Rats
To Male Sprague Dawley Rats (215±10 g) test compound was administered as 2.0 mg/mL solution in milli-Q water (pH 5.0) by intravenous and oral route. The final dose was 4.25 mg/kg body weight (intravenous) or 8.5 mg/kg body weight (oral). Plasma samples analyzed for test compound using LC-MS/MS method. Estimation of pharmacokinetic parameters was done by using moment analysis. WinNonlin software 6.1 (Pharsight) was utilized for the estimation of PK parameters and oral bioavailability.

In a further series the test system is P. aeruginosa PAO-1. In words: In vivo efficacy in P. aeruginosa PAO1 murine lung infection model. The following applies: subcutaneous 75 mg/kg twice daily. As for the experimental part:
(Test Example 3c) In Vivo Efficacy in P. aeruginosa PAO1 Murine Lung Infection Model Overnight grown culture of P. aeruginosa PAO-1 on TSA agar was inoculated in Brain heart infusion broth (BHI, DIFCO) and grown in a shaker incubator with shaking at 110 rpm at 35±2° C. overnight. The culture was subcultured in 50 mL of BHI and incubated again at 110 rpm at 35±2° C. on a shaker incubator till the optical density of the culture reaches 0.5-0.7 units. For infection, animals were weighed, randomized and anesthetized by giving isofluorane. Under anesthesia the animals were infected with 50 μL of the inoculum prepared as above by intranasal route. The test compounds were administered at 75 mg/kg body weight by subcutaneous route after 1 hour and 6 hours post infection. Animals were euthanized, lungs were removed aseptically and homogenized in PBS (3 mL) and serial dilutions plated on TSA plates 24 hours post infection.

Series [2] relates to E. coli ATCC 25922. Kind of series: Bacterial susceptibility testing (MIC, CLSI microdilution). The following applies: Escherichia coli, ATCC25922. Type of series: cell-based. The method, then: (§1) (Test Example 2) Method of Testing Susceptibility of Bacterial [MICs]
(§2) Minimum inhibitory concentration (MIC) were determined as recommended by the Clinical and Laboratory Standards Institute (CLSI) in 2010 (M100-520), in 2011 (M100-521), 2012 (M100-522) and in 2013 (M100-523) with minor modifications.
(§3) In short, bacterial cultures were streaked on Muller Hinton Agar plates and incubated at 35±2° C. for about 18 to 20 hours. Following day colony suspension was prepared in saline and adjusted to 0.5 McFarland using Densitometer. This culture was further diluted 100 fold in Muller Hinton Broth or M9 minimal media or pooled human urine and used for MIC determination. The test compounds were prepared in dimthylesulfoxide (DMSO) at concentration of 1 mg/mL, and diluted to 32 μg/mL in respective media. Further two fold serial dilution were prepared in 96 well microtiter plates. 50 μL of diluted cultures were added to all wells and incubated at 35±2° C. for about 16 to 20 hours.
Background: Broth dilution looks for growth in wells or tubes with falling amounts of substance.

In the next series the test system is K. pneumoniae ATCC 13883. Described as above. The following applies: Klebsiella pneumoniae, ATCC13883. The class given is cell-based. As for the experimental part:
as §1, §2, §3

For another series, the system named is P. aeruginosa. Described as above. The class given is cell-based. The following applies: Pseudomonas aeruginosa, strain not stated, read-out: MIC against P. aeruginosa. As for the experimental part:
as §1, §2, §3

Series [3] can be described thus: Oral bioavailability (BA) in mouse. The class given is in vivo. The following applies: female, plasma, 8.5 mg/kg body weight, Swiss mice, 8.5 mg/kg oral, 4.25 mg/kg intravenous, read-out: oral absolute bioavailability. As for the experimental part:
(Test Example 8b) Oral Bioavailability (BA) in Mouse
To Female Swiss mouse (23±3 g) test compound was administered as 0.5 mg/mL intravenous and 1 mg/mL oral solution in milli-Q water (pH 5.0). The final dose was 4.25 mg/kg body weight (intravenous) and 8.5 mg/kg body weight (oral route). Plasma samples analyzed for test compound using LC-MS/MS method. Estimation of pharmacokinetic parameters was done by using moment analysis. WinNonlin software 6.1 (Pharsight) was utilized for the estimation of PK parameters and oral bioavailability.

The target of a further series is T1, P. aeruginosa LRS (Pseudomonas aeruginosa, UniProt Q9HX33).
T1 construct: made in house
In words: Leucine tRNA synthetase (LRS) enzyme inhibition assay. Type of series: biochemical. The following applies: 3H leucine incorporation. As for the experimental part: (§4) (Test Example 1) Leucine tRNA Synthetase (LRS) Enzyme Inhibition Assay [IC50]
(§5) E. coli and P. aeruginosa LRS enzymes were cloned, expressed and purified in-house. The IC50 values were determined by using following assay protocol.
(§6) Test compounds were diluted in milli-Q water. 5 μL (microliter) of test compound dilution was mixed with 20 μL of reaction mixture consisting of 100 millimolar Tris (Trizma base from Sigma), 120 millimolar potassium chloride (Sigma), […] magnesium chloride (Sigma), 50 millimolar dithiothreitol, 50 mg/mL E. coli tRNA (Roche), 150 micromolar leucine (Sigma), 0.5 microcurie of ^3H Leucine (Amersham) and 20 μL of appropriate dilution of LRS enzyme, incubate in shaker at about 30° C. for 20 minutes. The reaction was started by adding 5 μL of 40 millimolar ATP (Sigma) and incubated on shaker at the same temperature further for 20 minutes. The reaction was quenched with 150 μL ice cold trichloroacetic acid (10%). The content of each well was transferred to 96 well GF/C plates (from Pall), and washed with 150 μL of trichloroacetic acid (5%) using vacuum manifold (from Pall). Plates were dried and read using Microbeta Wallac liquid scintillation counters after adding 100 μL of scintillation cocktail (Perkin Elmer's OptiPhase ‘SuperMix’) to each well. IC50 was calculated with respect to enzyme control after subtracting background (No enzyme control) using Graph Pad Prism software.

The target of a further series is T2, E. coli LRS (Escherichia coli, UniProt P07813).
T2 construct: made in house
The series is described as above. Type of series: biochemical. The method, then: as §4, §5, §6

A further series deals with E. coli GK00432. In words: In vivo efficacy in E. coli murine neutropenic thigh infection model. Further details: species or system Swiss albino mice. The following applies: subcutaneous. The method, then: (Test Example 3b) In Vivo Efficacy in E. coli Murine Neutropenic Thigh Infection Model
Efficacy of test compounds were evaluated by subcutaneous (SC) route against E. coli GK00432 in neutropenic mouse thigh infection model. Study was performed in Swiss albino mice of either sex weighing 20±2 g. Neutropenia was induced by intraperitoneal injections of cyclophosphamide given twice prior to infection (150 mg/kg, at 4 days prior to infection, and 100 mg/kg, at 1 day prior to infection). E. coli inoculum (0.1 mL) was injected intra-muscularly in the thigh muscle. After 2 hours, test compound at a dose of 30 mg/kg and 60 mg/kg body weight were administered by subcutaneous route and one group of mice (n=5) was sacrificed to evaluate total live bacterial count per thigh as baseline bacterial loads. Remaining three doses of test compound were administered by subcutaneous route after […] hours of the infection. Animals were euthanized, thigh muscles were removed aseptically and homogenized in phosphate buffered saline (3 mL) and serial dilutions plated Tryptone Soya Agar plates 26 hours post infection.

The subject of series [4] is P. aeruginosa PAO1 (parent, MexAB del, MexAB over expression). Kind of series: MICs against Pseudomonas efflux pump mutants. The class given is cell-based. As for the experimental part: as §3
(Test Example 5) MICs Against Pseudomonas Efflux Pump Mutants
Multidrug-resistant (MDR) P. aeruginosa isolated from nosocomial infections in intensive care units (ICUs) are often related to altered regulation of the specific efflux pumps and porins in P. aeruginosa strains. Tested compounds that show similar activity against efflux pump overproducers and lab strains can be predictive of activity in nosocomial patients infected with MDR strains. To identify such compounds we have determined MICs against P. aeruginosa PAO1 against Efflux deleted and overproducer strains.

The subject of series [5] is E. coli ATCC 25922. In words: MICs in Muller Hinton Broth and pooled human urine. The class given is cell-based. The following applies: Escherichia coli, ATCC25922. As for the experimental part:
as §3
(Test Example 4) MICs in Human Urine Against E. coli and K. pneumonia
Many antibacterial compounds like fluroquinolones loose activity in human urine at acidic pH (acidic urine promotes rigorous bacterial growth). MICs were performed using CLSI guidelines (2011) against E. coli 25922 in Muller Hinton Broth (MHB) and pooled human urine.

T1 sequence (Q9HX33 whole entry): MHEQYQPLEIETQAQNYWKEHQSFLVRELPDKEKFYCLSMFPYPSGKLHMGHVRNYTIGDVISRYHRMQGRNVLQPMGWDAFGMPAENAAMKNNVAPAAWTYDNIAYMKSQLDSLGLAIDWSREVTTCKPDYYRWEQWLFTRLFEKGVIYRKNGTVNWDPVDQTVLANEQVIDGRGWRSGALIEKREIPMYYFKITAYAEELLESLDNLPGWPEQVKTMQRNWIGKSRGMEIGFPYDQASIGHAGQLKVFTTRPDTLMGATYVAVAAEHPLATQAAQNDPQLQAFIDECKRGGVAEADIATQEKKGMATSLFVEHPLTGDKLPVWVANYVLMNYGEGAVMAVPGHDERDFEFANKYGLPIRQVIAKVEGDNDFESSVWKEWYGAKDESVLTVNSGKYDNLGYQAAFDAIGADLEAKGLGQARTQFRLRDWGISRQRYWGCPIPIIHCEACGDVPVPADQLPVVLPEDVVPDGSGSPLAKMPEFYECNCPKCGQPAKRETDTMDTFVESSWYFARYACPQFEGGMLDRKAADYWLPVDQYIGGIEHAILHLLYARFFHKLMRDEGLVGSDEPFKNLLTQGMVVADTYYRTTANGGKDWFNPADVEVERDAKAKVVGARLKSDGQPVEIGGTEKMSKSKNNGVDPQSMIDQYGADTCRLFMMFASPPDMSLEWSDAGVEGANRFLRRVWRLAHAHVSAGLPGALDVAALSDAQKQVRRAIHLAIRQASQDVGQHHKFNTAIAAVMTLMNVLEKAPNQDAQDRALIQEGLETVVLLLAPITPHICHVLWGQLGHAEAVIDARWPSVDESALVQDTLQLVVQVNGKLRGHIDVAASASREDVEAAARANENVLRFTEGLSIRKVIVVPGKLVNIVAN
T2 sequence (P07813 whole entry): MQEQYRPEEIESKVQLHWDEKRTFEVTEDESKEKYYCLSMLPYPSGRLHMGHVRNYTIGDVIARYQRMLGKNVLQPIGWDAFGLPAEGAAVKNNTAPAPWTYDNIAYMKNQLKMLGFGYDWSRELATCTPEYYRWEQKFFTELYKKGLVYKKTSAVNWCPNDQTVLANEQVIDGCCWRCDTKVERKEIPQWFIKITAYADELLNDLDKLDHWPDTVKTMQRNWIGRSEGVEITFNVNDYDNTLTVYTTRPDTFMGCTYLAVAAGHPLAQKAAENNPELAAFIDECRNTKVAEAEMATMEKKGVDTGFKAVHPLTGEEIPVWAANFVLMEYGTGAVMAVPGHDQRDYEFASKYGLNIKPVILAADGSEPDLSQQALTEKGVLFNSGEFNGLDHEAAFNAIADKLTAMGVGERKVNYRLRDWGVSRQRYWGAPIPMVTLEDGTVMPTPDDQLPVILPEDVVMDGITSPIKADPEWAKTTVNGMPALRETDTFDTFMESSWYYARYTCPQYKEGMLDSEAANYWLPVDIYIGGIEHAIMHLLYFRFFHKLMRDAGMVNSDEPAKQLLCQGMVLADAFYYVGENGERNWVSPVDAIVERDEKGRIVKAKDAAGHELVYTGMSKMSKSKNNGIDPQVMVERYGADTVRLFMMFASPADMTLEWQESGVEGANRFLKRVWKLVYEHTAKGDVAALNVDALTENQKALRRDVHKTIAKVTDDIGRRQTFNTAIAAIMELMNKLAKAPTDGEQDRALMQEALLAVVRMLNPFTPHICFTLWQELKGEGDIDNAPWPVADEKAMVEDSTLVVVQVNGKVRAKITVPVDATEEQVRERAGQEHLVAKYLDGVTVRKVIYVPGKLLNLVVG

Consider `Cl.NC[C@H]1OB(O)c2ccc3c(c21)OCO3` (single isomer, unassigned) [Compound 6], for which the bioavailability stood at 72% in [1] and 62% in series [3]. Moreover, in the series on P. aeruginosa PAO-1, the “log reduction in cfu from 24 hours untreated control” value is reported as 4.04 log. In addition, in the series with P. aeruginosa PAO-1, the “log reduction in cfu's from baseline” value is 2.58 log. The MIC in the series on E. coli ATCC 25922 [2] is 1 µg/mL; with K. pneumoniae ATCC 13883, 1 µg/mL; in the series with P. aeruginosa, 2 µg/mL.
Consider `Cl.NCC1OB(O)c2ccc3c(c21)OCO3` (stereo not shown) [Compound 5, 8-(aminomethyl)[1,3]dioxolo[4,5-e][2,1]benzoxaborol-6(8H)-ol hydrochloride], for which the IC50 was determined as 2.3 µM against P. aeruginosa LRS and 0.8 µM on E. coli LRS. The “log reduction in colony forming units (cfu) from 26 hours untreated control” value was determined as 3.1 log with E. coli GK00432 (30 mg/kg four times daily (QID)) and 3.8 log in the series with E. coli GK00432 (60 mg/kg four times daily (QID)). Also, the MIC in series [4] (PAO1, read-out: MIC (μg/mL) P. aeruginosa PAO1 MexAB del) is 4 µg/mL; in series [4] (PAO1, read-out: MIC (μg/mL) P. aeruginosa PAO1 MexAB over expression), 8 µg/mL; in series [4] (PAO1, read-out: MIC (μg/mL) P. aeruginosa PAO1 Parent), 4 µg/mL; in the series with E. coli ATCC 25922 [5] (Muller Hinton Broth, read-out: E. coli ATCC 25922 MIC (μg/mL) MHB), 2 µg/mL; with E. coli ATCC 25922 [5] (pooled human urine pH 5.5, read-out: E. coli ATCC 25922 MIC (μg/mL) Urine pH 5.5) it was 4 µg/mL; in the series on E. coli ATCC 25922 [2] it was 1 µg/mL. Besides, the values for the MIC against K. pneumoniae ATCC 13883 and in the series with P. aeruginosa were 1 µg/mL and 8 µg/mL, respectively.

As a reminder, the bioavailability is the share of a dose that reaches the circulation, judged against a reference dose that is usually intravenous. In general, IC50 refers to the concentration that gives 50% inhibition. Lower therefore signals greater potency.
